Reference: patent US20050090498A1, “3-Quinolin-2(1h)-ylideneindolin-2-one derivative” (priority 2001, published 2005)

These compounds were tested on Human umbilical vein endothelial cells (HUVEC), VEGF-stimulated (assay: Test on the inhibition of VEGF-stimulated HUVEC growth ([3H]thymidine incorporation)). Conditions: human recombinant VEGF 10 ng/ml.
Assay type: cell-based
Procedure: Test method: (Cell culture) Human umbilical vein endothelial cells (HUVEC) were cultured using EGM-2 complete medium (Clonetics) which had been supplemented with additives (2% FBS, 0.4% FGF (fibroblast growth factor), 0.1% VEGF, 0.1% IGF-I (insulin like growth factor-I), 0.1% EGF (epidermal growth factor), 0.1% ascorbic acid, 0.1% GA-1000, 0.1% heparin and 0.04% hydrocortisone).
(Evaluation of compounds) HUVEC (10,000 cells/well) were inoculated into EGM-2 complete medium in a gelatin-coated 96 well plate (mfd. by IWAKI) and cultured overnight. After washing with a physiological phosphate buffer, the medium was exchanged with a low serum medium (Medium 199/0.1% FBS) and the culturing was continued for 24 hours. Each of the compounds to be evaluated was prepared as a 10 mM DMSO solution and diluted with the low serum medium. This was added to each well to a final concentration of from 0.001 to 10 μM. After 2 hours of the compound treatment, human recombinant VEGF (R & D Systems) was added to a final concentration of 10 ng/ml. After 18 hours, [^3H]thymidine (Amersham Pharmacia) was added in 5 μCi/well portions. After 4 hours, the reaction was terminated by adding 0.2% SDS in 50 μl/well portions, and the product was recovered on GF/C Unifilter (Packard). After adding 25 μl of Microscinti 20 (Packard), the radioactivity incorporated into the DNA trapped on the filter was measured using TopCount (Packard). The IC50 of the inhibitory activity of each compound was calculated as the 50% inhibition concentration (IC50 value) of each compound to be tested, by defining the incorporated amount of [^3H]thymidine at the time of VEGF addition as 100%, and its incorporated amount at the time of no addition of VEGF as 0%.

In order of falling IC50:
1. O=Cc1ccc2c(c1)NC(=O)C2=C1C=Cc2ccccc2N1 [Example 193]  870 nM
2. CCN(CC)CCOc1ccc2c(c1)C(=C1C=Cc3ccccc3N1)C(=O)N2 [Example 286]  750 nM
3. O=C1Nc2ccccc2C1=C1C=Cc2cc(OCCNC3CCC(O)CC3)ccc2N1 (stereo not shown) [Example 57]  720 nM
4. O=C1Nc2ccccc2C1=C1C=Cc2ccc(OCCN3CCOCC3)cc2N1 [Example 102]  410 nM
5. O=C1Nc2ccc([N+](=O)[O-])cc2C1=C1C=Cc2ccccc2N1 [Example 284]  360 nM
6. O=C(O)CCc1ccc2c(c1)C=CC(=C1C(=O)Nc3ccccc31)N2 [Example 66]  350 nM
7. CCOC(=O)c1ccc2c(c1)C(=C1C=Cc3ccccc3N1)C(=O)N2 [Example 239]  310 nM
8. COc1ccc2c(c1)C=CC(=C1C(=O)Nc3ccccc31)N2 [Example 37]  310 nM
9. Cc1ccc2c(c1)C(=C1C=Cc3ccccc3N1)C(=O)N2 [Example 201]  290 nM
10. O=C1Nc2ccccc2C1=C1C=Cc2c(cccc2OCCN2CCOCC2)N1 [Example 105]  220 nM
11. CC(=O)Oc1ccc2c(c1)NC(=O)C2=C1C=Cc2ccccc2N1 [Example 265]  180 nM
12. O=C1Nc2ccccc2C1=C1C=Cc2cc(OCCCCN3CCOCC3)ccc2N1 [Example 47]  170 nM
13. COc1cc2c(cc1CCCN1CCOCC1)NC(=C1C(=O)Nc3ccccc31)C=C2 [Example 77]  160 nM
14. O=C1Nc2ccccc2C1=C1C=Cc2cc(OC(=O)c3ccccc3)ccc2N1 [Example 36]  160 nM
15. CN1CCN(CCCc2ccc3c(c2)C=CC(=C2C(=O)Nc4ccccc42)N3)CC1 [Example 98]  150 nM
16. O=C1Nc2ccccc2C1=C1C=C(CO)c2ccccc2N1 [Example 187]  140 nM
17. O=C1Nc2ccccc2C1=C1C=Cc2cc(Br)ccc2N1 [Example 56]  110 nM
18. O=C1Nc2ccccc2C1=C1C=Cc2cc(OCCN3CCN(CCO)CC3)ccc2N1 [Example 85]  110 nM
19. CN1CCCN(CCOc2ccc3c(c2)C=CC(=C2C(=O)Nc4ccccc42)N3)CC1 [Example 83]  110 nM
20. O=C1Nc2ccccc2C1=C1C=Cc2cc(OCCCN3CCOCC3)ccc2N1 [Example 42]  110 nM
21. CCOC(=O)C1CCN(CCOc2ccc3c(c2)C=CC(=C2C(=O)Nc4ccccc42)N3)CC1 [Example 79]  100 nM
22. CN1CCC(N(C)CCOc2ccc3c(c2)C=CC(=C2C(=O)Nc4ccccc42)N3)CC1 [Example 87]  100 nM
23. COCCNCc1ccc2c(c1)C=CC(=C1C(=O)Nc3ccccc31)N2 [Example 112]  100 nM
24. CN(C)CCN(C)CCOc1ccc2c(c1)C=CC(=C1C(=O)Nc3ccccc31)N2 [Example 86]  100 nM
25. O=C1Nc2ccccc2C1=C1C=Cc2cc(OCCN3CCS(=O)(=O)CC3)ccc2N1 [Example 80]  100 nM
26. O=C(CCc1ccc2c(c1)C=CC(=C1C(=O)Nc3ccccc31)N2)NOCC1CC1 [Example 144]  93 nM
27. O=C1Nc2ccccc2C1=C1C=Cc2cc(OCCN3CCCCC3=O)ccc2N1 [Example 59]  87 nM
28. O=C1Nc2ccc(Cl)cc2C1=C1C=Cc2ccccc2N1 [Example 283]  84 nM
29. CCOC(=O)CNC(=O)c1ccc2c(c1)C=CC(=C1C(=O)Nc3ccccc31)N2 [Example 146]  76 nM
30. CNC(=O)c1ccc2c(c1)C=CC(=C1C(=O)Nc3ccccc31)N2 [Example 149]  73 nM
31. CCOCc1ccc2c(c1)NC(=O)C2=C1C=Cc2ccccc2N1 [Example 259]  71 nM
32. O=C1Nc2ccc(Br)cc2C1=C1C=Cc2ccccc2N1 [Example 285]  70 nM
33. N#Cc1ccc2c(c1)NC(=O)C2=C1C=Cc2ccccc2N1 [Example 191]  70 nM
34. O=C1Nc2ccccc2C1=C1C=Cc2cc(OCCN3CCC(n4c(=O)[nH]c5ccccc54)CC3)ccc2N1 [Example 81]  68 nM
35. CCOC(=O)c1cc2c(cc1Cl)C(=C1C=Cc3cc(OCCN4CCOCC4)ccc3N1)C(=O)N2 [Example 298]  50 nM
36. O=C1Nc2cc(Cl)ccc2C1=C1C=Cc2cc(OCCN3CCOCC3)ccc2N1 [Example 312]  48 nM
37. O=C1Nc2ccc(Cl)cc2C1=C1C=Cc2cc(OCCN3CCOCC3)ccc2N1 [Example 293]  48 nM
38. O=C1Nc2cc(C(F)(F)F)ccc2C1=C1C=Cc2cc(OCCN3CCOCC3)ccc2N1 [Example 296]  47 nM
39. CCN(CC)CCNC(=O)C1=CC(=C2C(=O)Nc3ccccc32)Nc2ccccc21 [Example 160]  46 nM
40. O=C(NCCCN1CCOCC1)C1=CC(=C2C(=O)Nc3ccccc32)Nc2ccccc21 [Example 163]  43 nM
41. O=C1Nc2ccccc2C1=C1C=Cc2cc(OCCN3CCN(c4ncccn4)CC3)ccc2N1 [Example 82]  42 nM
42. O=C(NCCN1CCOCC1)C1=CC(=C2C(=O)Nc3ccccc32)Nc2ccccc21 [Example 159]  38 nM
43. CC1=CC(=C2C(=O)Nc3ccccc32)Nc2ccccc21 [Example 38]  38 nM
44. COCCOc1ccc2c(c1)C=CC(=C1C(=O)Nc3ccccc31)N2 [Example 58]  34 nM
45. N#Cc1ccc2c(c1)NC(=O)C2=C1C=Cc2cc(OCCN3CCOCC3)ccc2N1 [Example 295]  33 nM
46. CCOC(=O)CCC1=CC(=C2C(=O)Nc3ccccc32)Nc2ccccc21 [Example 39]  32 nM
47. O=C1Nc2ccccc2C1=C1C=Cc2cc(C(=O)NCCN3CCOCC3)ccc2N1 [Example 145]  31 nM
48. CCOC(=O)c1cc2c(cc1F)C(=C1C=Cc3cc(OCCN4CCOCC4)ccc3N1)C(=O)N2 [Example 299]  27 nM
49. CCOC(=O)c1cc2c(cc1F)C(=C1C=Cc3ccccc3N1)C(=O)N2 [Example 204]  22 nM
50. O=C1Nc2cc(F)c(F)cc2C1=C1C=Cc2cc(OCCN3CCOCC3)ccc2N1 [Example 341]  20 nM
51. O=C1Nc2cc(F)ccc2C1=C1C=Cc2ccccc2N1 [Example 209]  18 nM
52. CCOC(=O)c1ccc2c(c1)NC(=O)C2=C1C=Cc2cc(OCCN3CCOCC3)ccc2N1 [Example 294]  12 nM
53. CCOC(=O)c1ccc2c(c1)NC(=O)C2=C1C=Cc2ccccc2N1 [Example 17, ethyl 3-[quinolin-2(1H)-ylidene]indolin-2-one-carboxylate]  12 nM
54. O=C1Nc2cc(Cl)ccc2C1=C1C=Cc2ccccc2N1 [Example 217]  11 nM
55. CCOC(=O)c1cc2c(cc1C)C(=C1C=Cc3cc(OCCN4CCOCC4)ccc3N1)C(=O)N2 [Example 301]  7.6 nM
56. CCOC(=O)c1cc2c(cc1C)C(=C1C=Cc3ccccc3N1)C(=O)N2 [Example 222]  6.8 nM
57. O=C1Nc2cc(C(F)(F)F)ccc2C1=C1C=Cc2ccccc2N1 [Example 203]  4.8 nM
58. O=C1Nc2ccc(F)cc2C1=C1C=Cc2ccccc2N1 [Example 213]  0.97 nM

System: Human umbilical vein endothelial cells (HUVEC), VEGF-stimulated
Test: as above
Assay type: cell-based
Conditions: human recombinant VEGF 10 ng/ml
Remark: another data set of the same source

In order of falling IC50:
1. O=C1Nc2cc(C(=O)O)ccc2C1=C1C=Cc2ccccc2N1 [Example 25, 2-oxo-3-quinolin-2(1H)-ylideneindoline-6-carboxylic acid]  380 nM
2. O=C1Nc2ccccc2C1=C1C=Cc2cc(OCC(=O)N3CCOCC3)ccc2N1 [Example 8, 3-[6-(2-morpholin-4-yl-2-oxoethoxy)quinolin-2(1H)-ylidene]indolin-2-one]  170 nM
3. O=C1Nc2cnc(Cl)nc2/C1=C1\C=Cc2ccccc2N1 [Example 361]  24 nM
